Measured values: PubChem BioAssay (NCI)
Values joined by “and” are separate entries in the source; they are usually repeats but may differ in a detail not shown here. Equal values may be shown once.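 The compound was tested at five concentrations on cells cultured in 96-well plates, with a 48-hour exposure period. Abbreviation: GI50, concentration required for 50% inhibition of growth. The concentration for full growth arrest is given as TGI.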

Each molecule was assayed on NCI-H23 lung (assay: growth of human tumour cells (NCI), 48 h).

First: CCCCOC(=O)Nc1ccc(S(=O)(=O)Nc2ccccc2Cl)cc1
Second: Cc1ccc(NC(=O)CC2Sc3ccccc3NC2=O)cc1C (stereo unspecified)
The TGI of the first is lower: 77.7 µM for the first, greater than 100 µM for the second.

First: COc1ccc2cc1Oc1ccc(cc1)C[C@H]1c3cc(c(OC)cc3CCN1C)Oc1c(O)c(OC)cc3c1[C@H](C2)N(C)CC3
Second: Cc1ccccc1C(=N)c1ccccc1Cc1cccc2ccccc12
The TGI of the first is lower: 95.5 µM for the first, greater than 100 µM for the second.

Nc1ncnc2c1[nH]c(=O)n2-c1ccccc1 and CC1CN(C)c2ccccc2N=C1NN (stereo unspecified) cannot be ordered by TGI: greater than 100 µM for the first, greater than 100 µM for the second.

O=C(c1ccccn1)C1(N2CCCCC2)CCCCC1 and NC(=O)C(=Cn1c(=S)[nH]c2ccc([N+](=O)[O-])cc21)C(N)=O cannot be ordered by TGI: greater than 100 µM for the first, greater than 100 µM for the second.

N[C@@H](CCC(=O)NCP(=O)(O)O)C(=O)O and CCC(=O)NC(Nc1cc(C)on1)(C(F)(F)F)C(F)(F)F cannot be ordered by TGI: greater than 100 µM for the first, greater than 100 µM for the second.

With O=c1[nH]c(=S)[nH]c2c1C(c1ccc([N+](=O)[O-])cc1)c1c([nH]c(=S)[nH]c1=O)O2 the TGI was greater than 100 µM.

For O=C1C=C[C@@H](COC2OC(CO)C(O)C(O)C2O)O1 (stereo partly specified), the GI50 was 5.12 µM.

For O=C1C=C[C@@H](COC2OC(CO)C(O)C(O)C2O)O1 (stereo partly specified), the TGI was 19.2 µM and 29.7 µM.

What follows are molecules tested on UACC-62 melanoma (assay: growth of human tumour cells (NCI), 48 h).

Going from O=C1c2cc3c(cc2-c2c1c1ccc(F)cc1c(=O)n2C[C@H](O)[C@@H](O)[C@H](O)CO)OCO3 to O=C1C=C[C@@H](COC2OC(CO)C(O)C(O)C2O)O1 (stereo partly specified), the GI50 rises from 0.025 µM to 3.03 µM (120-fold).

First: O=C1c2cc3c(cc2-c2c1c1ccc(F)cc1c(=O)n2C[C@H](O)[C@@H](O)[C@H](O)CO)OCO3
Second: COC(=O)[C@@H](O)[C@](O)(CCC(C)C)C(=O)O[C@@H]1C(OC)=C[C@]23CCCN2CCc2cc4c(cc2[C@H]13)OCO4
The TGI of the first is 240-fold lower: 0.123 µM for the first, 29.4 µM for the second.

First: C=CC1(CC/C(=C\[N+](=O)[O-])c2ccc(OC)c(OC)c2)OCC(C)(C)CO1
Second: COc1ccc2cc1Oc1ccc(cc1)C[C@H]1c3cc(c(OC)cc3CCN1C)Oc1c(O)c(OC)cc3c1[C@H](C2)N(C)CC3
The TGI of the first is 1.5-fold lower: 29.4 µM for the first, 44.7 µM for the second.

NS(=O)(=O)c1nnc(NC(=O)Nc2ccc(Cl)c(Cl)c2)s1 and CCCCOC(=O)Nc1ccc(S(=O)(=O)Nc2ccccc2Cl)cc1 are within 1.5-fold of each other in TGI: 31.2 µM for the first, 32.7 µM for the second.

CC(=O)Nn1c(=S)[nH]c2ccccc21 and CC1CN(C)c2ccccc2N=C1NN (stereo unspecified) cannot be ordered by TGI: greater than 100 µM for the first, greater than 100 µM for the second.

Nc1ncnc2c1[nH]c(=O)n2-c1ccccc1 and Cc1ccc(NC(=O)CC2Sc3ccccc3NC2=O)cc1C (stereo unspecified) cannot be ordered by TGI: greater than 100 µM for the first, greater than 100 µM for the second.

O=C(c1ccccn1)C1(N2CCCCC2)CCCCC1 and NC(=O)C(=Cn1c(=S)[nH]c2ccc([N+](=O)[O-])cc21)C(N)=O cannot be ordered by TGI: greater than 100 µM for the first, greater than 100 µM for the second.

N[C@@H](CCC(=O)NCP(=O)(O)O)C(=O)O and CCC(=O)NC(Nc1cc(C)on1)(C(F)(F)F)C(F)(F)F cannot be ordered by TGI: greater than 100 µM for the first, greater than 100 µM for the second.

First: Cc1ccccc1C(=N)c1ccccc1Cc1cccc2ccccc12
Second: O=c1[nH]c(=S)[nH]c2c1C(c1ccc([N+](=O)[O-])cc1)c1c([nH]c(=S)[nH]c1=O)O2
The TGI of the first is lower: 38.6 µM for the first, greater than 100 µM for the second.

With COc1ccc2[nH]cc(/C=C(/C)c3ccncc3)c2c1 the TGI was 29.8 µM and 52.9 µM.
O=C1C=C[C@@H](COC2OC(CO)C(O)C(O)C2O)O1 (stereo partly specified) was tested, and the TGI was 12 µM and 22.6 µM.

The molecules below were run on SNB-75 CNS (assay: growth of human tumour cells (NCI), 48 h).

In the case of COc1ccc2[nH]cc(/C=C(/C)c3ccncc3)c2c1, the GI50 is reported as 4.93 µM.

With COc1ccc2[nH]cc(/C=C(/C)c3ccncc3)c2c1 the TGI was 29.5 µM and 7.19 µM.
O=C1C=C[C@@H](COC2OC(CO)C(O)C(O)C2O)O1 (stereo partly specified) was tested, and the TGI was 29.7 µM and 31.8 µM.

First: COC(=O)[C@@H](O)[C@](O)(CCC(C)C)C(=O)O[C@@H]1C(OC)=C[C@]23CCCN2CCc2cc4c(cc2[C@H]13)OCO4
Second: COc1ccc2cc1Oc1ccc(cc1)C[C@H]1c3cc(c(OC)cc3CCN1C)Oc1c(O)c(OC)cc3c1[C@H](C2)N(C)CC3
The TGI of the first is 3.7-fold lower: 14.1 µM for the first, 52 µM for the second.

Cc1ccc(NC(=O)CC2Sc3ccccc3NC2=O)cc1C (stereo unspecified) and NC(=O)C(=Cn1c(=S)[nH]c2ccc([N+](=O)[O-])cc21)C(N)=O cannot be ordered by TGI: greater than 100 µM for the first, greater than 100 µM for the second.

For CCC(=O)NC(Nc1cc(C)on1)(C(F)(F)F)C(F)(F)F, the TGI was greater than 100 µM.

These molecules were tested on HL-60(TB) leukemia (assay: growth of human tumour cells (NCI), 48 h).

Compared with COc1ccc2[nH]cc(/C=C(/C)c3ccncc3)c2c1, Cc1ccc(NC(=O)CC2Sc3ccccc3NC2=O)cc1C (stereo unspecified) is 17-fold higher in TGI: 3.93 µM for the first, 66.1 µM for the second.

C=CC1(CC/C(=C\[N+](=O)[O-])c2ccc(OC)c(OC)c2)OCC(C)(C)CO1 and COc1ccc2cc1Oc1ccc(cc1)C[C@H]1c3cc(c(OC)cc3CCN1C)Oc1c(O)c(OC)cc3c1[C@H](C2)N(C)CC3 are within 1.5-fold of each other in TGI: 34.1 µM for the first, 48.2 µM for the second.

Compared with NS(=O)(=O)c1nnc(NC(=O)Nc2ccc(Cl)c(Cl)c2)s1, CCCCOC(=O)Nc1ccc(S(=O)(=O)Nc2ccccc2Cl)cc1 is lower in TGI: greater than 100 µM for the first, 59.5 µM for the second.

Compared with COC(=O)[C@@H](O)[C@](O)(CCC(C)C)C(=O)O[C@@H]1C(OC)=C[C@]23CCCN2CCc2cc4c(cc2[C@H]13)OCO4, O=C(c1ccccn1)C1(N2CCCCC2)CCCCC1 is higher in TGI: 2.96 µM for the first, greater than 100 µM for the second.

CC(=O)Nn1c(=S)[nH]c2ccccc21 and CC1CN(C)c2ccccc2N=C1NN (stereo unspecified) cannot be ordered by TGI: greater than 100 µM for the first, greater than 100 µM for the second.

Nc1ncnc2c1[nH]c(=O)n2-c1ccccc1 and O=c1[nH]c(=S)[nH]c2c1C(c1ccc([N+](=O)[O-])cc1)c1c([nH]c(=S)[nH]c1=O)O2 cannot be ordered by TGI: greater than 100 µM for the first, greater than 100 µM for the second.

N[C@@H](CCC(=O)NCP(=O)(O)O)C(=O)O and NC(=O)C(=Cn1c(=S)[nH]c2ccc([N+](=O)[O-])cc21)C(N)=O cannot be ordered by TGI: greater than 100 µM for the first, greater than 100 µM for the second.

First: Cc1ccccc1C(=N)c1ccccc1Cc1cccc2ccccc12
Second: CCC(=O)NC(Nc1cc(C)on1)(C(F)(F)F)C(F)(F)F
The TGI of the first is lower: 42.2 µM for the first, greater than 100 µM for the second.

O=C1C=C[C@@H](COC2OC(CO)C(O)C(O)C2O)O1 (stereo partly specified) showed a GI50 of 2.75 µM.

O=C1C=C[C@@H](COC2OC(CO)C(O)C(O)C2O)O1 (stereo partly specified) was tested, and the TGI was 15.4 µM and 5.22 µM.

Each molecule was assayed on SF-268 CNS (assay: growth of human tumour cells (NCI), 48 h).

COc1ccc2[nH]cc(/C=C(/C)c3ccncc3)c2c1 and Cc1ccc(NC(=O)CC2Sc3ccccc3NC2=O)cc1C (stereo unspecified) cannot be ordered by TGI: greater than 100 µM for the first, greater than 100 µM for the second.

First: C=CC1(CC/C(=C\[N+](=O)[O-])c2ccc(OC)c(OC)c2)OCC(C)(C)CO1
Second: COc1ccc2cc1Oc1ccc(cc1)C[C@H]1c3cc(c(OC)cc3CCN1C)Oc1c(O)c(OC)cc3c1[C@H](C2)N(C)CC3
The TGI of the first is 3.8-fold lower: 39.1 µM for the first, 150 µM for the second.

First: NS(=O)(=O)c1nnc(NC(=O)Nc2ccc(Cl)c(Cl)c2)s1
Second: CCCCOC(=O)Nc1ccc(S(=O)(=O)Nc2ccccc2Cl)cc1
The TGI of the first is 1.8-fold higher: 67.5 µM for the first, 36.5 µM for the second.

Compared with COC(=O)[C@@H](O)[C@](O)(CCC(C)C)C(=O)O[C@@H]1C(OC)=C[C@]23CCCN2CCc2cc4c(cc2[C@H]13)OCO4, O=C(c1ccccn1)C1(N2CCCCC2)CCCCC1 is 19-fold higher in TGI: 3.37 µM for the first, 64.3 µM for the second.

CC(=O)Nn1c(=S)[nH]c2ccccc21 and CC1CN(C)c2ccccc2N=C1NN (stereo unspecified) cannot be ordered by TGI: greater than 100 µM for the first, greater than 100 µM for the second.

Compared with Nc1ncnc2c1[nH]c(=O)n2-c1ccccc1, Cc1ccccc1C(=N)c1ccccc1Cc1cccc2ccccc12 is lower in TGI: greater than 100 µM for the first, 68.2 µM for the second.

CCC(=O)NC(Nc1cc(C)on1)(C(F)(F)F)C(F)(F)F and NC(=O)C(=Cn1c(=S)[nH]c2ccc([N+](=O)[O-])cc21)C(N)=O cannot be ordered by TGI: greater than 100 µM for the first, greater than 100 µM for the second.

O=C1C=C[C@@H](COC2OC(CO)C(O)C(O)C2O)O1 (stereo partly specified) showed a GI50 of 4.59 µM.

O=C1C=C[C@@H](COC2OC(CO)C(O)C(O)C2O)O1 (stereo partly specified) was tested, and the TGI was 17.8 µM and 62.6 µM.

The molecules below were run on PC-3 prostate (assay: growth of human tumour cells (NCI), 48 h).

In the case of O=C1c2cc3c(cc2-c2c1c1ccc(F)cc1c(=O)n2C[C@H](O)[C@@H](O)[C@H](O)CO)OCO3, the GI50 is reported as 0.205 µM.

O=C1c2cc3c(cc2-c2c1c1ccc(F)cc1c(=O)n2C[C@H](O)[C@@H](O)[C@H](O)CO)OCO3 and O=c1[nH]c(=S)[nH]c2c1C(c1ccc([N+](=O)[O-])cc1)c1c([nH]c(=S)[nH]c1=O)O2 cannot be ordered by TGI: greater than 100 µM for the first, greater than 100 µM for the second.

C=CC1(CC/C(=C\[N+](=O)[O-])c2ccc(OC)c(OC)c2)OCC(C)(C)CO1 and CCCCOC(=O)Nc1ccc(S(=O)(=O)Nc2ccccc2Cl)cc1 are within 1.5-fold of each other in TGI: 57 µM for the first, 58.4 µM for the second.

CC(=O)Nn1c(=S)[nH]c2ccccc21 and CC1CN(C)c2ccccc2N=C1NN (stereo unspecified) cannot be ordered by TGI: greater than 100 µM for the first, greater than 100 µM for the second.

Nc1ncnc2c1[nH]c(=O)n2-c1ccccc1 and Cc1ccccc1C(=N)c1ccccc1Cc1cccc2ccccc12 cannot be ordered by TGI: greater than 100 µM for the first, greater than 100 µM for the second.

O=C(c1ccccn1)C1(N2CCCCC2)CCCCC1 and N[C@@H](CCC(=O)NCP(=O)(O)O)C(=O)O cannot be ordered by TGI: greater than 100 µM for the first, greater than 100 µM for the second.
